“Also recorded” adds a separate entry of the source.
Assays:
[1] = test system: artemisinin-resistant P. falciparum Dd2 R539T; assay: Ring-stage survival assay (0–3 h), Dd2 R539T; assay type: cell-based; conditions: 700 nM, 6 h pulse; relative to DMSO control; compared with DHA
Experimental: (§1) The effect of DHA–HDACi hybrids on artemisinin-resistant asexual stages of P. falciparum was assessed using the ring-stage survival assay as previously described with minor modifications. Briefly, mature schizonts of the artemisinin-sensitive strain Dd2 and the partial artemisinin-resistant strain Dd2 R539Twere isolated using magnetic column separation. The schizonts were then put with 10 mL complete medium and 200 µL 0^+ erythrocytes in a T-25 cell culture flask and incubated for exactly 3 h (37 °C, 5% O2, and 5% CO2). Next, parasites were synchronized with 5% (w/v) D-sorbitol solution yielding a culture containing only newly-invaded (0–3 h) ring-stage parasites.
(§2) Ring-stage parasites were added at 2% hematocrit and 0.5% parasitemia to a 48-well plate precoated with complete medium containing either DHA (Sigma-Aldrich) (positive control) or the tested DHA–HDACi hybrids at a final concentration of 700 nM or DMSO (negative control). […] Parasitemia was assessed by Giemsa-stained thin blood smears by two independent readers (10,000 erythrocytes per slide). If the results were discordant by more than 50%, a third independent read was conducted. The survival was calculated as the percentage of treated versus the untreated controls (DMSO). […] Means and standard deviations were calculated using Microsoft Excel. […]

[2] = test system: artemisinin-sensitive P. falciparum Dd2; assay: Ring-stage survival assay (0–3 h), Dd2; assay type: cell-based; conditions: 700 nM, 6 h pulse; relative to DMSO control
Experimental: as §1, §2

SMILES | survival of artemisinin-resistant Dd2 R539T parasites in ring-stage survival assay [1] | survival of artemisinin-sensitive Dd2 parasites in ring-stage survival assay [2] [%]
C[C@H]1[C@@H](SCc2ccc(C(=O)NO)cc2)O[C@@H]2O[C@@]3(C)CC[C@H]4[C@H](C)CC[C@@H]1[C@@]24OO3 [(α)-7c, N-Hydroxy-4-((((3R,5aS,6R,8aS,9R,10R,12S,12aR)-3,6,9-trimethyldecahydro-12H-3,12-epoxy[1,2]dioxepino[4,3-i]isochromen-10-yl)thio)methyl)benzamide] | significantly more active than DHA alone; also recorded: lowest survival | –
C[C@H]1[C@@H](O)O[C@@H]2O[C@@]3(C)CC[C@H]4[C@H](C)CC[C@@H]1[C@@]24OO3 [DHA, dihydroartemisinin] | – | ≤ 0.25

Reference: paper PMC8952208, “Synthesis, Antiplasmodial, and Antileukemia Activity of Dihydroartemisinin–HDAC Inhibitor Hybrids as Multitarget Drugs” (Pharmaceuticals, 2022)
